Key:
johnsongrass [1] = test: Test C postemergence; type: in vivo, Sorghum halepense; conditions: for Plant response rating (scale of 0 to 100 where 0 is no effect and 100 is complete control), Johnsongrass: Postemergence, 31 g ai/ha, visually evaluated after 13 to 15 days; for Johnsongrass plant response rating / Plant response rating, Johnsongrass: postemergence; for Johnsongrass plant response rating: 62 g ai/ha, scale 0 to 100
Method in brief: (§1)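 Visual control ratings on a 0–100 scale (100 = complete control) made against untreated controls after 13 to 15 days in greenhouse. Compounds applied in surfactant-containing solvent mixture, either preemergence to loam/sand-sown seeds or postemergence to 1- to 4-leaf plants (2–18 cm) in peat medium.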

oilseed rape = test: Test C postemergence; type: in vivo, Brassica napus; conditions: for Plant response rating (scale of 0 to 100 where 0 is no effect and 100 is complete control), Oilseed Rape: Postemergence, 31 g ai/ha, visually evaluated after 13 to 15 days; for Oilseed Rape plant response rating / Plant response rating, Oilseed Rape: postemergence; for Oilseed Rape plant response rating: 62 g ai/ha, scale 0 to 100
Method in brief: as §1

waterhemp = test: Test C postemergence; type: in vivo, Amaranthus rudis; conditions: for Plant response rating (scale of 0 to 100 where 0 is no effect and 100 is complete control), Waterhemp: Postemergence, 31 g ai/ha, visually evaluated after 13 to 15 days; for Waterhemp plant response rating / Plant response rating, Waterhemp: postemergence; for Waterhemp plant response rating: 62 g ai/ha, scale 0 to 100
Method in brief: as §1

foxtail, giant = test: Test A preemergence; type: in vivo, Setaria faberii; conditions: preemergence
Method in brief: (§2)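 Scoring was visual, on a scale where 100 means complete control and 0 means no effect, comparing treated with untreated plants around 10 days post-application. Compounds in surfactant-containing non-phytotoxic solvent were sprayed onto soil preemergence or onto one- to two-leaf seedlings (2–10 cm) postemergence.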

pigweed [2] = test: Test C preemergence; type: in vivo, Amaranthus retroflexus; conditions: for Plant response rating (scale of 0 to 100), Pigweed: Preemergence, 250 g ai/ha; for Pigweed plant response rating / Plant response rating, Pigweed: preemergence, 13 to 15 days; for Pigweed plant response rating: scale 0 to 100 (0 no effect, 100 complete control); for Plant response rating, Pigweed: 125 g ai/ha, scale 0 to 100, 0 = no effect, 100 = complete control
Method in brief: as §1

barnyardgrass = test: Test B flood; type: in vivo, Echinochloa crus-galli; conditions: 250 g ai/ha, visual rating on 0 to 100 scale (0 no effect, 100 complete control), 13 to 15 days
Method in brief: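 2-leaf plants; pots flooded 3 cm over soil; compound added to paddy water, depth kept constant. Greenhouse 13–15 d. Visual rating vs controls, 0–100 scale (100 = complete control); dash = no result.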

lambsquarters = test: Test C preemergence; type: in vivo, Chenopodium album; conditions: for Plant response rating (scale of 0 to 100), Lambsquarters: Preemergence, 250 g ai/ha; for Lambsquarters plant response rating / Plant response rating, Lambsquarters: preemergence, 13 to 15 days; for Lambsquarters plant response rating: scale 0 to 100 (0 no effect, 100 complete control); for Plant response rating, Lambsquarters: 125 g ai/ha, scale 0 to 100, 0 = no effect, 100 = complete control
Method in brief: as §1

pigweed [3] = test: Test A preemergence; type: in vivo, Amaranthus retroflexus; conditions: preemergence
Method in brief: as §2

blackgrass [4] = test: Test C preemergence; type: in vivo, Alopecurus myosuroides; conditions: for Plant response rating (scale of 0 to 100), Blackgrass: Preemergence, 250 g ai/ha; for Blackgrass plant response rating / Plant response rating, Blackgrass: preemergence, 13 to 15 days; for Blackgrass plant response rating: scale 0 to 100 (0 no effect, 100 complete control); for Plant response rating, Blackgrass: 125 g ai/ha, scale 0 to 100, 0 = no effect, 100 = complete control
Method in brief: as §1

blackgrass [5] = test: Test C postemergence; type: in vivo, Alopecurus myosuroides; conditions: for Plant response rating (scale of 0 to 100 where 0 is no effect and 100 is complete control), Blackgrass: Postemergence, 31 g ai/ha, visually evaluated after 13 to 15 days; for Blackgrass plant response rating / Plant response rating, Blackgrass: postemergence; for Blackgrass plant response rating: 62 g ai/ha, scale 0 to 100
Method in brief: as §1

crabgrass, large = test: Test C postemergence; type: in vivo, Digitaria sanguinalis; conditions: for Plant response rating (scale of 0 to 100 where 0 is no effect and 100 is complete control), Crabgrass, Large: Postemergence, 31 g ai/ha, visually evaluated after 13 to 15 days; for Crabgrass, Large plant response rating / Plant response rating, Crabgrass, Large: postemergence; for Crabgrass, Large plant response rating: 62 g ai/ha, scale 0 to 100
Method in brief: as §1

johnsongrass [6] = test: Test C preemergence; type: in vivo, Sorghum halepense; conditions: for Plant response rating (scale of 0 to 100), Johnsongrass: Preemergence, 250 g ai/ha; for Johnsongrass plant response rating / Plant response rating, Johnsongrass: preemergence, 13 to 15 days; for Johnsongrass plant response rating: scale 0 to 100 (0 no effect, 100 complete control); for Plant response rating, Johnsongrass: 125 g ai/ha, scale 0 to 100, 0 = no effect, 100 = complete control
Method in brief: as §1

[7] = 250 g ai/ha, scale 0 to 100 (0 no effect, 100 complete control)
[8] = 125 g ai/ha, scale 0 to 100, 0 no effect, 100 complete control
[9] = 125 g ai/ha, visual injury, 0 to 100 scale, approx. 10 days
[10] = 500 g ai/ha, visual injury after approx. 10 days, 0 to 100 scale (0 no effect, 100 complete control)

## CCCc1cc(C(=O)NCC(F)(F)F)nn1Cc1ccnc(OC(F)F)c1 [Compound 127]
Johnsongrass [1]
  Plant response rating (scale of 0 to 100 where 0 is no effect and 100 is complete control), Johnsongrass: 5
  Johnsongrass plant response rating: 5
Johnsongrass [1]; [7]
  Plant response rating, Johnsongrass: 25
Johnsongrass [1]; [8]
  Plant response rating, Johnsongrass: 30
Oilseed rape
  Plant response rating (scale of 0 to 100 where 0 is no effect and 100 is complete control), Oilseed Rape: 65
  Oilseed Rape plant response rating: 70
Oilseed rape; [7]
  Plant response rating, Oilseed Rape: 85
Oilseed rape; [8]
  Plant response rating, Oilseed Rape: 80
waterhemp
  Plant response rating (scale of 0 to 100 where 0 is no effect and 100 is complete control), Waterhemp: 50
  Waterhemp plant response rating: 65
waterhemp; [7]
  Plant response rating, Waterhemp: 70
waterhemp; [8]
  Plant response rating, Waterhemp: 70
foxtail, giant; [9]
  Foxtail, Giant plant response rating: 90
foxtail, giant; [10]
  Foxtail, Giant plant response rating: 100
Pigweed [2]
  Plant response rating (scale of 0 to 100), Pigweed: 100
  Plant response rating, Pigweed: 100
Pigweed [2]; 31 g ai/ha, visual rating
  Pigweed plant response rating: 100
Pigweed [2]; 62 g ai/ha
  Pigweed plant response rating: 100
barnyardgrass
  Plant response rating, Barnyardgrass: 70
lambsquarters
  Plant response rating (scale of 0 to 100), Lambsquarters: 100
  Plant response rating, Lambsquarters: 90
lambsquarters; 31 g ai/ha, visual rating
  Lambsquarters plant response rating: 100
lambsquarters; 62 g ai/ha
  Lambsquarters plant response rating: 80
Pigweed [3]; [9]
  Pigweed plant response rating: 90
Pigweed [3]; [10]
  Pigweed plant response rating: 100
Blackgrass [4]
  Plant response rating (scale of 0 to 100), Blackgrass: 85
  Plant response rating, Blackgrass: 60
Blackgrass [4]; 31 g ai/ha, visual rating
  Blackgrass plant response rating: 20
Blackgrass [4]; 62 g ai/ha
  Blackgrass plant response rating: 60
Blackgrass [5]
  Plant response rating (scale of 0 to 100 where 0 is no effect and 100 is complete control), Blackgrass: 20
  Blackgrass plant response rating: 15
Blackgrass [5]; [7]
  Plant response rating, Blackgrass: 40
Blackgrass [5]; [8]
  Plant response rating, Blackgrass: 10
crabgrass, large
  Plant response rating (scale of 0 to 100 where 0 is no effect and 100 is complete control), Crabgrass, Large: 10
  Crabgrass, Large plant response rating: 10
crabgrass, large; [7]
  Plant response rating, Crabgrass, Large: 55
crabgrass, large; [8]
  Plant response rating, Crabgrass, Large: 20
Johnsongrass [6]
  Plant response rating (scale of 0 to 100), Johnsongrass: 90
  Plant response rating, Johnsongrass: 80
Johnsongrass [6]; 31 g ai/ha, visual rating
  Johnsongrass plant response rating: 55
Johnsongrass [6]; 62 g ai/ha
  Johnsongrass plant response rating: 55

## CCOc1cc(C(=O)NCC(F)(F)F)nn1Cc1ccnc(OC(F)F)c1 [Compound 128]
Johnsongrass [1]
  Plant response rating (scale of 0 to 100 where 0 is no effect and 100 is complete control), Johnsongrass: 5
  Johnsongrass plant response rating: 5
Johnsongrass [1]; [7]
  Plant response rating, Johnsongrass: 10
Johnsongrass [1]; [8]
  Plant response rating, Johnsongrass: 5
Oilseed rape
  Plant response rating (scale of 0 to 100 where 0 is no effect and 100 is complete control), Oilseed Rape: 50
  Oilseed Rape plant response rating: 60
Oilseed rape; [7]
  Plant response rating, Oilseed Rape: 90
Oilseed rape; [8]
  Plant response rating, Oilseed Rape: 60
waterhemp
  Plant response rating (scale of 0 to 100 where 0 is no effect and 100 is complete control), Waterhemp: 60
  Waterhemp plant response rating: 65
waterhemp; [7]
  Plant response rating, Waterhemp: 95
waterhemp; [8]
  Plant response rating, Waterhemp: 70
foxtail, giant; [9]
  Foxtail, Giant plant response rating: 100
foxtail, giant; [10]
  Foxtail, Giant plant response rating: 100
Pigweed [2]
  Plant response rating (scale of 0 to 100), Pigweed: 100
  Plant response rating, Pigweed: 100
Pigweed [2]; 31 g ai/ha, visual rating
  Pigweed plant response rating: 100
Pigweed [2]; 62 g ai/ha
  Pigweed plant response rating: 100
barnyardgrass
  Plant response rating, Barnyardgrass: 70
lambsquarters
  Plant response rating (scale of 0 to 100), Lambsquarters: 98
  Plant response rating, Lambsquarters: 98
lambsquarters; 31 g ai/ha, visual rating
  Lambsquarters plant response rating: 98
lambsquarters; 62 g ai/ha
  Lambsquarters plant response rating: 100
Pigweed [3]; [9]
  Pigweed plant response rating: 100
Pigweed [3]; [10]
  Pigweed plant response rating: 100
Blackgrass [4]
  Plant response rating (scale of 0 to 100), Blackgrass: 90
  Plant response rating, Blackgrass: 90
Blackgrass [4]; 31 g ai/ha, visual rating
  Blackgrass plant response rating: 50
Blackgrass [4]; 62 g ai/ha
  Blackgrass plant response rating: 90
Blackgrass [5]
  Plant response rating (scale of 0 to 100 where 0 is no effect and 100 is complete control), Blackgrass: 10
  Blackgrass plant response rating: 5
Blackgrass [5]; [7]
  Plant response rating, Blackgrass: 80
Blackgrass [5]; [8]
  Plant response rating, Blackgrass: 10
crabgrass, large
  Plant response rating (scale of 0 to 100 where 0 is no effect and 100 is complete control), Crabgrass, Large: 5
  Crabgrass, Large plant response rating: 5
crabgrass, large; [7]
  Plant response rating, Crabgrass, Large: 85
crabgrass, large; [8]
  Plant response rating, Crabgrass, Large: 30
Johnsongrass [6]
  Plant response rating (scale of 0 to 100), Johnsongrass: 98
  Plant response rating, Johnsongrass: 95
Johnsongrass [6]; 31 g ai/ha, visual rating
  Johnsongrass plant response rating: 45
Johnsongrass [6]; 62 g ai/ha
  Johnsongrass plant response rating: 85

Source: patent publication US20150105252A1, “SUBSTITUTED PYRAZOLES AS HERBICIDES” (E I DU PONT DE NEMOURS AND COMPANY, priority 2013, published 2015)
